The text below walks through data of US20040259948A1, “Reciprocal regulation of inflammation and lipid metabolism by liver X receptors” (priority 2003, published 2004).

Experiment [1] has as its system Thioglycolate-elicited peritoneal macrophages. The experiment in a line: Macrophage response to E. coli infection: iNOS mRNA and NO production. Format: cell-based, murine. To be noted: 18 h, pretreated with 1 μM ligand, real-time quantitative PCR.
Method: Thioglycolate-elicited peritoneal macrophages were infected in vitro with Escherichia coli. After 18 hours, expression of inducible nitric oxide synthase (iNOS) mRNA and nitric oxide (NO) production were assessed. […] Cells were then infected with E. coli (A, B) or treated with 100 ng/ml LPS(C, D, E) as indicated. After 18 h, NO production was determined using a colorimetric assay (A, D), or mRNA levels were determined using real-time quantitative PCR assays (B, C, E).
Thioglycolate-elicited peritoneal macrophages were cultured in RPMI containing 10% fetal bovine serum (FBS). […] For ligand treatments, cells were in cultured medium supplemented with 5% lipoprotein-deficient serum (LPDS) and ligands for 18 h before stimulation. […] NO production was determined spectrophotometrically (Castrillo, A. et al. 2000 Mol Cell Biol 20:1692-1698).
Total RNA was extracted using Trizol reagent (Life Technologies, Inc.). […] Real-time quantitative PCR (TaqMan) analysis was performed using an Applied Biosystems 7700 sequence detector.
Experiment [2] has as its system Thioglycolate-elicited murine peritoneal macrophages. The experiment in a line: LPS-stimulated macrophages: NO production, iNOS and ABCA1 mRNA. Format: cell-based. To be noted: for iNOS mRNA: 100 ng/ml LPS, 18 h, pretreated with 1 μM ligand, real-time quantitative PCR. As for the experimental part:
To investigate the role of LXRs in host defense, the influence of LXR agonists on macrophage responses to bacterial pathogens was tested. Thioglycolate-elicited peritoneal macrophages were infected in vitro with Escherichia coli. After 18 hours, expression of inducible nitric oxide synthase (iNOS) mRNA and nitric oxide (NO) production were assessed. […] This repression occurs over the same concentration range needed to induce the established LXR target gene ATP-binding cassette transporter A1 (ABCA1). A, LXR agonist inhibits nitrite production in response to bacterial infection. […] Cells were then infected with E. coli (A, B) or treated with 100 ng/ml LPS(C, D, E) as indicated. After 18 h, NO production was determined using a colorimetric assay (A, D), or mRNA levels were determined using real-time quantitative PCR assays (B, C, E). […] The inhibitory effect of LXR agonists on iNOS expression was dose-dependent and occurred over the same range of concentration as that required to induce ATP-binding cassette transporter A1 (ABCA1) (FIGS. 1D and E).
The anti-inflammatory activity of LXR ligands can be separated from the induction of lipid metabolism genes such as ABCA1. Murine peritoneal macrophages were treated with LPS to induce iNOS gene expression (FIG. 8A) and were assayed for ABCA1 mRNA by real time qPCR (FIG. 8B). NOx production was measured by colorimetric assay. […] The identification of LXR agonists with only anti-inflammatory activity should greatly increase the usefulness of such compounds as therapeutic agents, because they lack the unwanted side effects on lipid metabolism such as elevation of triglyceride levels.
Cell culture and transfections. Thioglycolate-elicited peritoneal macrophages were cultured in RPMI containing 10% fetal bovine serum (FBS). RAW 264.7 cells were cultured in DMEM containing 10% FBS. For ligand treatments, cells were in cultured medium supplemented with 5% lipoprotein-deficient serum (LPDS) and ligands for 18 h before stimulation. Bacterial infection in vitro was performed as described (Chen, L. M. et al. 1996 Mol Microbiol 21:1101-1115). Transient transfections of RAW 264.7 cells were performed in triplicate in 48-well plates using Superfect reagent (Life Technologies). After transfection, cells were incubated in medium containing 10% LPDS and the indicated ligands for 18 h before stimulation with LPS for an additional 18 h. Luciferase activity was normalized to β-galactosidase activity. NO production was determined spectrophotometrically (Castrillo, A. et al. 2000 Mol Cell Biol 20:1692-1698).
RNA and protein analysis. Total RNA was extracted using Trizol reagent (Life Technologies, Inc.). Northern blot analysis was carried out as described using radiolabeled cDNA probes (Tontonoz, P. et al. 1998 Cell 93:241-252). Real-time quantitative PCR (TaqMan) analysis was performed using an Applied Biosystems 7700 sequence detector. Two-step real-time PCR was performed as described (Joseph, S. B. et al. 2002 J Biol Chem 277:11019-11025). The primers and probes used are as follows: […]

The test system is the same in experiment [3]. Description: Expression of NF-κB target genes in LPS-treated macrophages (northern blot, real-time quantitative PCR). It counts as cell-based. As for the experimental part:
LPS is an established inducer of the NF-κB signaling pathway in macrophages. Several genes inhibited by LXR ligands in the array studies above are established targets of NF-κB. To further investigate the role of LXRs in NF-κB-dependent gene expression, we analyzed expression of NF-κB target genes in peritoneal macrophages from wild-type mice. […] Expression of NF-κB target genes was determined by northern blot (A) or by real-time quantitative PCR assays (B). 36B4 was used as a control for RNA loading and integrity. […] RNA and protein analysis. Total RNA was extracted using Trizol reagent (Life Technologies, Inc.). Northern blot analysis was carried out as described using radiolabeled cDNA probes (Tontonoz, P. et al. 1998 Cell 93:241-252). Real-time quantitative PCR (TaqMan) analysis was performed using an Applied Biosystems 7700 sequence detector. Two-step real-time PCR was performed as described (Joseph, S. B. et al. 2002 J Biol Chem 277:11019-11025). The primers and probes used are as follows: […]

The next experiment concerns C57B1/6 mice. Description: Murine model of irritant contact dermatitis (TPA-treated ear). Format: in vivo. As to conditions: topical 20 μl of 10 mM at 45 min and 4 h post-TPA; 18 h; relative to vehicle-treated ear. As for the experimental part:
The effects of LXR ligands in both acute and chronic inflammatory contexts were evaluated. First, the effects of LXR agonists in a murine model of irritant contact dermatitis (Sheu, M. Y. et al. 2002 J Invest Dermatol 118:94-101) were studied. Ears of C57B1/6 mice (n=5 per group) were treated topically with 12-O-tetradecanoylphorbol-13-acetate (TPA) (left ear) or with vehicle (right ear). […] Thickness and weight of 6-mm punch biopsies were determined for each group after 18 h TPA treatment and are presented relative to vehicle-treated ear. […] Analysis of hematoxylin and eosin (H&E) stained sections of the TPA-treated ears confirmed a reduction in edema and inflammatory infiltrate by LXR agonist. Thus, two structurally unrelated LXR agonists have anti-inflammatory activity in a model of cutaneous inflammation.
Animals. Mice on a mixed background (C57B1/6 and 129v) and Apoe^−/− mice on a C57B1/6 background were maintained on standard chow. […] Irritant contact dermatitis was induced as described (Sheu, M. Y. et al. 2002 J Invest Dermatol 118:94-101). Briefly, 10 μl of 0.03% 12-O-tetradecanoylphorbol-13-acetate (TPA) in acetone was applied to the left ears of male mice. The right ears were treated with vehicle alone. […] After 18 h of TPA treatment, the thickness and weight of 6-mm punch biopsies were determined. Statistical analysis was performed using Student's t-test. Experiments were conducted in accordance of the Animal Research Committee of the University of California, Los Angeles.

Experiment [4] deals with Thioglycolate-elicited murine peritoneal macrophages. The experiment in a line: IL-1β- or TNFα-induced inflammatory gene expression in macrophages. Format: cell-based. As to conditions: pretreated 18 h; IL-1β or TNFα (50 ng/ml); real-time quantitative PCR. The protocol:
Next, the influence of LXR agonists on inflammatory gene expression induced by IL-1β and TNFα, which have been implicated in the pathogenesis of atherosclerosis, was tested. […] Gene expression was detected by real-time quantitative PCR assays. […] Total RNA was isolated from individual aortas and gene expression was measured by real-time quantitative PCR. P<0.05 for MMP-9 (*) and P<0.01 (**) for ABCA1. […] Thus, LXR agonist reduces expression of an established inflammatory mediator in the vessel wall. Cell culture and transfections. Thioglycolate-elicited peritoneal macrophages were cultured in RPMI containing 10% fetal bovine serum (FBS). RAW 264.7 cells were cultured in DMEM containing 10% FBS. For ligand treatments, cells were in cultured medium supplemented with 5% lipoprotein-deficient serum (LPDS) and ligands for 18 h before stimulation. Bacterial infection in vitro was performed as described (Chen, L. M. et al. 1996 Mol Microbiol 21:1101-1115). Transient transfections of RAW 264.7 cells were performed in triplicate in 48-well plates using Superfect reagent (Life Technologies). After transfection, cells were incubated in medium containing 10% LPDS and the indicated ligands for 18 h before stimulation with LPS for an additional 18 h. Luciferase activity was normalized to β-galactosidase activity. NO production was determined spectrophotometrically (Castrillo, A. et al. 2000 Mol Cell Biol 20:1692-1698). RNA and protein analysis. Total RNA was extracted using Trizol reagent (Life Technologies, Inc.). Northern blot analysis was carried out as described using radiolabeled cDNA probes (Tontonoz, P. et al. 1998 Cell 93:241-252). Real-time quantitative PCR (TaqMan) analysis was performed using an Applied Biosystems 7700 sequence detector. Two-step real-time PCR was performed as described (Joseph, S. B. et al. 2002 J Biol Chem 277:11019-11025). The primers and probes used are as follows: […]

Experiment [5] relates to human smooth muscle cells. Description: TNF-induced gene expression in human smooth muscle cells. It counts as cell-based. To be noted: TNF 6 hours; real time qPCR. The protocol: (§1) Activation of LXR by synthetic ligands inhibits inflammatory gene expression in multiple human cell types (FIG. 7A-C). TNFα plays a role in the induction of inflammatory mediators in during inflammation. Cells were treated for 6 hours with TNF as indicated and gene expression was measured by real time qPCR.
On the technique in general: In qPCR the cycle at which signal appears reflects the starting amount.

Experiment [6] has as its system human aortic endothelial cells. Description: TNF-induced gene expression in human aortic endothelial cells. It counts as cell-based. To be noted: TNF 6 hours; real time qPCR. The protocol:
as §1

The test system of experiment [7] is human peripheral blood mononuclear cells. Description: TNF-induced gene expression in human peripheral blood mononuclear cells. Format: cell-based. As to conditions: TNF 6 hours; real time qPCR. The protocol:
as §1

Turning to `Cc1cc(SCc2sc(-c3ccc(C(F)(F)F)cc3)nc2C)ccc1OCC(=O)O` [GW1516], the “iNOS mRNA” value in experiment [1] and in experiment [2] was “minimal effects” in each case.
In the case of `O=S(=O)(c1ccccc1)N(CC(F)(F)F)c1ccc(C(O)(C(F)(F)F)C(F)(F)F)cc1` [T1317, N-(2,2,2-trifluoro-ethyl)-N-[4-(2,2,2-trifluoro-1-hydroxy-1-trifluoromethyl-ethyl)-phenyl]-benzenesulfonamide], the “activation of ABCA1 gene expression, T1317 compared with GW3965” value in experiment [2] (increasing doses, real time qPCR, FIG. 8B) is given as “more effective activator”. In experiment [3], the “receptor-independent induction of IL-6” value is listed as “modest receptor-independent induction” and the “receptor-independent induction of MCP-1” value was “modest receptor-independent induction”. In the experiment on C57B1/6 mice, the ear thickness result is given as “reduced” and the “ear weight (6-mm punch biopsies)” value is on record as “reduced”. Further, in experiment [4], the “induction of IL-6 expression” value is recorded as “inhibit” and the “induction of iNOS expression” value was “inhibit”. Moreover, the TNF-induced gene expression entry in experiment [5] was “inhibited”. The TNF-induced gene expression result in experiment [6] is reported as “inhibited”. For the same compound, the TNF-induced gene expression entry in experiment [7] is “inhibited”.
GW7647: the “iNOS mRNA” value in experiment [1] and in experiment [2] was “minimal effects” each time.
